According to patent publication EP4342890A1, “PLATFORM AND SCAFFOLD FOR FAP TARGETING AGENTS” (Erasmus University Rotterdam Medical Center, priority 2022, dated 2024):

Key:
Type in all cases: biochemical
[1] = molecular target: T1, PREP (Homo sapiens, UniProt P48147); test: In vitro inhibition assay on PREP (Z-GP-AMC substrate); settings: enzymatic assay; 20 µM substrate, 2 nM PREP; unit inferred
T1 sequence (P48147 1-710): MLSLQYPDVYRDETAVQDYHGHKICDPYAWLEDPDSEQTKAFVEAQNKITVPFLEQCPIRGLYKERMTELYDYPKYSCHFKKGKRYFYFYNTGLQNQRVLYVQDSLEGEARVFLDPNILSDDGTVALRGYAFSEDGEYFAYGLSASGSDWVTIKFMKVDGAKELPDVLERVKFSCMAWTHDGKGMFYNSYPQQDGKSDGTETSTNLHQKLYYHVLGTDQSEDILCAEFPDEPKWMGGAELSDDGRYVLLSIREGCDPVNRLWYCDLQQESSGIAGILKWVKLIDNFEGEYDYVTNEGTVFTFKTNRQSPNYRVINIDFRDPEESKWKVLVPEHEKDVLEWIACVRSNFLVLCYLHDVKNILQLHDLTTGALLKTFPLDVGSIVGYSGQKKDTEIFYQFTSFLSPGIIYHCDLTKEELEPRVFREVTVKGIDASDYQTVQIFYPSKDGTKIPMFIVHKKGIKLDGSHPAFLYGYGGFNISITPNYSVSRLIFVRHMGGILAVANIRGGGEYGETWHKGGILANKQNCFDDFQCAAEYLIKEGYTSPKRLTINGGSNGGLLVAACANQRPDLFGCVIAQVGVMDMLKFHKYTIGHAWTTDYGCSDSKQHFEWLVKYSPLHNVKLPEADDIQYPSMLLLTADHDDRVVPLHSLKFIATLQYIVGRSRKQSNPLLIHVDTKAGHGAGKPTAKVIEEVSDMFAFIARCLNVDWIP
Protocol: (§1) Enzymatic activity of PREP on the Z-GP-AMC substrate was measured at room temperature on a Hidex microplate reader by monitoring the fluorescence at an excitation wavelength of 360 nm and an emission wavelength of 465 nm. The reaction mixture contained 20 µM substrate, 2 nM PREP, assay buffer (50 mM Tris, 100 mM NaCl, 1 mM EDTA, pH 7.4) and tested compound (serial dilution from 10-6 to 10-12) in a total volume of 50 µL.

[2] = molecular target: DPP4 (Homo sapiens, UniProt P27487); test: In vitro inhibition assay on DPP4 (Z-GP-pNA substrate); settings: enzymatic assay; 20 µM Z-GP-pNA; unit inferred
Sequence of DPP4 (P27487 39-766): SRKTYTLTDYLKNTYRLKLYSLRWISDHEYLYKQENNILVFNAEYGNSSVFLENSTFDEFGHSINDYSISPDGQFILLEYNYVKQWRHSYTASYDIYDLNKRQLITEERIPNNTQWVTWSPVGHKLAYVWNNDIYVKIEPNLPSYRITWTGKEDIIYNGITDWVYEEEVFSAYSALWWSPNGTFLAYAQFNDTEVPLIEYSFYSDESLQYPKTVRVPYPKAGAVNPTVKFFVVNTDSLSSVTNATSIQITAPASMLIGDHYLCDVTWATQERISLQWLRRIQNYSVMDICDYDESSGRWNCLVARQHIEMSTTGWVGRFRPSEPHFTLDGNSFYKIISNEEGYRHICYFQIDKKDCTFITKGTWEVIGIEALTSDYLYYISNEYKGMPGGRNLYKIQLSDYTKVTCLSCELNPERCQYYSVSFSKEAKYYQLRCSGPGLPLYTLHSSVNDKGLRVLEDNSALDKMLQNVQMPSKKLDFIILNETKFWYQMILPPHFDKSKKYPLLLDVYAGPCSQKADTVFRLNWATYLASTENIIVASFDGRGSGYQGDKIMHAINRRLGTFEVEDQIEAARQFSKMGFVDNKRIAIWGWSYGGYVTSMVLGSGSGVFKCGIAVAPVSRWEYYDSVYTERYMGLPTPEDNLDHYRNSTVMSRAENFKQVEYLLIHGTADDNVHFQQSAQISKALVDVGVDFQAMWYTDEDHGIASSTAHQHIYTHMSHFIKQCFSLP

[3] = molecular target: T2, murine FAP (Mus musculus, UniProt P97321); test: In vitro inhibition assay on mouse FAP (Z-GP-AMC substrate); settings: enzymatic assay; 20 µM Z-GP-AMC, 20 nM FAP; unit inferred
T2 sequence (P97321 1-761): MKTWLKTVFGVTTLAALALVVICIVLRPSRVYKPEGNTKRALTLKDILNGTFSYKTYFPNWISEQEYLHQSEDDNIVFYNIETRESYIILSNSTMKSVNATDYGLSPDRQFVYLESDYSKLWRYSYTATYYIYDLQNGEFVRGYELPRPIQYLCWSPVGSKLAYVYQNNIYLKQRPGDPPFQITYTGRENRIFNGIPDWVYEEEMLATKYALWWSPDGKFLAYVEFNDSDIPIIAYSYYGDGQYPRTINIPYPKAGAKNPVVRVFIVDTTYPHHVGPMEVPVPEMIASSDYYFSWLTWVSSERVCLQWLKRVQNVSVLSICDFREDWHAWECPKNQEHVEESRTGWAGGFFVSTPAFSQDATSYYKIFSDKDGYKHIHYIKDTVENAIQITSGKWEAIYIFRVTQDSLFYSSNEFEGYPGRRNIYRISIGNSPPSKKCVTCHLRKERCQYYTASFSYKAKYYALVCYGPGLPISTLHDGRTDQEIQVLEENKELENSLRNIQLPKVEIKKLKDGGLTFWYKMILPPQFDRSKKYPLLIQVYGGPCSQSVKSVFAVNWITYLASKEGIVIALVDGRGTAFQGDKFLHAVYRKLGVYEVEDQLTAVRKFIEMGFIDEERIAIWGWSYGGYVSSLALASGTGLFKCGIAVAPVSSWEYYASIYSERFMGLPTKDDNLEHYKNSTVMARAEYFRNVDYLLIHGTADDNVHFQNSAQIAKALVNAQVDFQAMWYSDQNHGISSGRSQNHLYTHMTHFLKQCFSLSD
Protocol: as §1, with “of human FAP (hFAP) and mouse FAP (mFAP)” for “of PREP”, “substrate, 20” for “substrate, 2”, “nM FAP,” for “nM PREP,”, “from 10^-6” for “from 10-6”, “to 10^-12)” for “to 10-12)”

[4] = molecular target: T3, FAP (Homo sapiens, UniProt Q12884); test: In vitro inhibition assay on human FAP (Z-GP-AMC substrate); settings: enzymatic assay; 20 µM Z-GP-AMC, 20 nM FAP; unit inferred
T3 sequence (Q12884 1-760): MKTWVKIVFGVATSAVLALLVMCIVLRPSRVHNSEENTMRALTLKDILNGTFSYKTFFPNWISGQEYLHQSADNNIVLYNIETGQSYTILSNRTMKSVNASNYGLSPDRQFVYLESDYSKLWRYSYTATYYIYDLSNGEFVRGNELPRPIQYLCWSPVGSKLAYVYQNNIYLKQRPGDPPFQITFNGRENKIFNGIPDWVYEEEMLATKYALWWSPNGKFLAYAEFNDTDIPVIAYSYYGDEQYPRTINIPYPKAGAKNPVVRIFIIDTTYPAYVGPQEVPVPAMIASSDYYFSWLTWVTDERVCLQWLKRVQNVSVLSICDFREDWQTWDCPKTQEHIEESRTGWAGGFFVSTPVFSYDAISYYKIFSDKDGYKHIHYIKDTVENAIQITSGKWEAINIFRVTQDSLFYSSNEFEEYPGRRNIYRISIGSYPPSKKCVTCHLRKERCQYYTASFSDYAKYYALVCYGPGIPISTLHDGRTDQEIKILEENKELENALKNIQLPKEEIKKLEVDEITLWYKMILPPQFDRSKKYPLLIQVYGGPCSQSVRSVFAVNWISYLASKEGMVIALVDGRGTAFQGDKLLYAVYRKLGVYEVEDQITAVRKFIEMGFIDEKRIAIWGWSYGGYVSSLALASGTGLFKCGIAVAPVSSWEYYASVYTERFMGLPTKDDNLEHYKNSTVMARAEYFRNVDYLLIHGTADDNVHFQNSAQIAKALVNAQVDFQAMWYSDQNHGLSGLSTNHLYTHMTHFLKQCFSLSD
Protocol: as §1, with “of human FAP (hFAP) and mouse FAP (mFAP)” for “of PREP”, “substrate, 20” for “substrate, 2”, “nM FAP,” for “nM PREP,”, “from 10^-6” for “from 10-6”, “to 10^-12)” for “to 10-12)”

Q: `N#C[C@@H]1CC(F)(F)CN1C(=O)CNC(=O)c1ccnc2c(OCCCNC(=O)CN3CCN(CC(=O)O)CCN(CC(=O)O)CCN(CC(=O)O)CC3)cccc12` [eFAP-6, (S)-2,2',2"-(10-(2-((3-((4-((2-(2-Cyano-4,4-difluoropyrrolidin-1-yl)-2-oxoethyl)carbamoyl)quinolin-8-yl)oxy)propyl)amino)-2-oxoethyl)-1,4,7,10-tetraazacyclododecane-1,4,7-triyl)triacetic acid] was tested. Which IC50 [1] did it give?
A: The IC50 was 108 ± 42 nM.

Q: What about the IC50 [2] of the same compound?
A: Its IC50 is greater than 10000 nM.

Q: What about the IC50 [3] of the same compound?
A: Its IC50 is 3.1 ± 2.4 nM.

Q: And the IC50 [4]?
A: Its IC50 is 1.6 ± 0.5 nM.
